# Laboratory results taken from patent publication US11072634B2, “Inhibitors of transglutaminases” (Zedira GmbH, priority 2016, dated 2021).
# Where a SMILES comes first, the peptide text is derived from it. [ ]: non-standard residue; d: D form. The star is where a group is joined. DON = [N-]=[N+]=CC(=O)CC[C@H](N)C(=O)O; Cbz = O=C(OCc1ccccc1)*
# Key:
# [1] = tested on: CaCo2 (human colon carcinoma cell line); test: Metabolic activity, EZ4U-Assay; type: cell-based
# Method: (§1) The following cell lines are used for determination of cytotoxicity: • CaCo2 (human colon carcinoma cell line) • Huh7 (human liver carcinoma cell line).
# (§2) Cells are cultivated in DMEM/10% FCS at 37° C. and 5% CO2 in a 96 well plate with an initial seeding density of 2×10^4 cells/well.
# (§3) Transglutaminase inhibitors are added to the cells with final concentrations from 0.1 μM to 1 mM one hour after seeding. The different inhibitor dilutions are prepared in DMSO, resulting in a final concentration of 1% (v/v) DMSO in every well (2 μl inhibitor in 200 μl cell culture medium). Cycloheximide (2.5 μg/ml) and Camptothecin (0.2 μg/ml) are used as control compounds. All measurements are performed in triplicates.
# (§4) Determination of metabolic activity using EZ4U-Assay (Biomedica, Cat. No. BI-5000).
# (§5) After 48 h of incubation with inhibitors or controls, the tetrazolium substrate is added to the cells. Substrate turnover by the cells is measured over two hours at 450 nm (using 630 nm was reference wavelength).
# [2] = tested on: Huh7 (human liver carcinoma cell line); test: Metabolic activity, EZ4U-Assay; type: cell-based
# Method: as §1, §2, §3, §4, §5
# CaCo2 and Huh7 cells = test: Cytotoxicity of transglutaminase inhibitors (BrdU and EZ4U); type: cell-based, human; details: BrdU and EZ4U, depending on the cell type
# Method: as §1, §2, §3
# Cytotoxicity of transglutaminase inhibitors is evaluated with two different assays:
# (§6) Determination of proliferation using Cell Proliferation ELISA, BrdU (Roche, Cat. No. 11647229001).
# After 24 h of incubation with inhibitors or controls, BrdU is added to the cells. After further incubation for 18 h, the cells are fixed and cellular DNA becomes denatured. […] Substrate solution is added and absorbance at 450 nm is recorded. […]
# as §5
# [3] = tested on: CaCo2 (human colon carcinoma cell line); test: Cell Proliferation ELISA, BrdU; type: cell-based
# Method: as §1, §2, §3, §6
# (§7) After 24 h of incubation with inhibitors or controls, BrdU is added to the cells. After further incubation for 18 h, the cells are fixed and cellular DNA becomes denatured. A monoclonal antibody (conjugated with peroxidase) raised against BrdU is added to the wells and binds to BrdU which is incorporated into the DNA. Substrate solution is added and absorbance at 450 nm is recorded. Further analysis is performed according to the manufacturer's protocol.
# [4] = tested on: Huh7 (human liver carcinoma cell line); test: Cell Proliferation ELISA, BrdU; type: cell-based
# Method: as §1, §2, §3, §6, §7
compound,measurement,setting,value
"COC(=O)[C@H](CC(C)C)NC(=O)[C@@H]1CCCN1C(=O)[C@@H](NC(=O)[C@H](CCC(=O)C=[N+]=[N-])NC(=O)OCc1ccccc1)C(C)C [Compound Z006, Z-DON-VPL-OMe, reference compound] (Cbz-[DON]VPL-OMe)","Cytotoxicity concentration (>10% deviation from negative control), EZ4U, Caoo2",[1],500 µM
same,"Cytotoxicity concentration (>10% deviation from negative control), EZ4U, Huh-7",[2],125 µM
same,concentration at which cytotoxic (reduced cell proliferation and metabolic activity),CaCo2 and Huh7 cells,125 µM
same,"Cytotoxicity concentration (>10% deviation from negative control), BrdU, Caco2",[3],250 µM
same,"Cytotoxicity concentration (>10% deviation from negative control), BrdU, Huh-7",[4],125 µM
